Experimental findings from patent US20230405140A1, “ANTI-CD56 ANTIBODY-DRUG CONJUGATES AND THEIR USE IN THERAPY” (MCSAF INSIDE ONCOLOGY, priority 2020, published 2023) are described below.

Non-standard residues stand in square brackets, D forms with d. Residues, ends and D or L forms follow the SMILES beside them. *: point of attachment. Dolaproine = CO[C@@H]([C@@H]1CCCN1)[C@@H](C)C(=O)O; Dil = CC[C@H](C)[C@H](NC)[C@@H](CC(=O)O)OC; X1 = C[C@@H](N*)[C@@H](O)c1ccccc1; NMeV = CN[C@H](C(=O)O)C(C)C

Common to all, as to assay: XTT assay, ADC-mediated cytotoxicity
Common to all, as to assay type: cell-based
On the technique in general: Tetrazolium assays rely on reduction of a dye to a coloured formazan, in cell work by metabolically active cells.

One assay concerns H209. The note with it: 4 days, read-out: H209 n = 3 IC50. The procedure:
(§1) To evaluate cell viability and cellular metabolic activity, XTT assays were performed according to standard protocols. WaGa, PeTa, H69, H209, H660 cell lines were plated in 3 replicates in a 96-well plate with 5.10^4 cells/well. […] Untreated cells were used as viability reference. Cells treated with 1% Triton X100 were used as cell death positive control. After 4 days, 25 μL XTT reagent at 1 mg/mL (Alfa Aesar, thermo Fisher) with N-methyl dibenzopyrazine methyl sulfate (PMS) activator (25 μM) was added per well and absorbance was measured at 450 nm after 4 h incubation. Absorbance at 620 nm was used as a reference. Three independent experiments have been performed.

In a further assay the test system is H69. The following applies: 4 days, read-out: H69 n = 3 IC50. As to the method: as §1
For the next assay, the system named is PeTa. The following applies: 4 days, read-out: PeTa n = 3 IC50. As to the method: as §1
A further assay deals with WaGa CRISPR CD56. The note with it: 4 days, CD56− cells, read-out: WaGa CRISPR CD56 n = 3 IC50. As to the method: as §1
The subject of the next assay is WaGa. The note with it: 4 days, read-out: WaGa n = 3 IC50. As to the method:
as §1

The next assay relates to MKL-1 CRISPR CD56. The following applies: 4 days, CD56− cells, read-out: MKL-1 CRISPR CD56 n = 3 IC50.

The IC50 is the concentration needed to halve the response being measured. For `CC[C@H](C)[C@@H]([C@@H](CC(=O)N1CCC[C@H]1[C@H](OC)[C@@H](C)C(=O)N[C@H](C)[C@@H](O)c1ccccc1)OC)N(C)C(=O)[C@@H](NC(=O)[C@@H](NC)C(C)C)C(C)C` [MMAE, monomethyl auristatin E, reference compound] (H-[NMeV]V[Dil][Dolaproine]-X1), the IC50 with H209 stood at 2.24 nM; in the assay on H69 it was 0.888 nM; in the assay on PeTa, 1.11 nM; in the assay on WaGa CRISPR CD56 it was 0.942 nM; in the assay with WaGa, 3.07 nM; with MKL-1 CRISPR CD56, 0.856 nM.
